Measurements reported in patent US9695155B2, “Herbicidal substituted pyrimidinyloxy benzene compounds” (E. I. DU PONT DE NEMOURS AND COMPANY, priority 2013, dated 2017).

Assays:
pigweed [1] = experiment: Test A postemergence; type: in vivo, Amaranthus retroflexus
In short: (§1)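 Compounds in non-phytotoxic solvent with surfactant applied as soil spray preemergence, or postemergence to plants 2-10 cm at one- to two-leaf stage, in loam/sand. After approximately 10 days in greenhouse, injury rated visually versus untreated controls, 0 (no effect) to 100 (complete control).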

rice = experiment: Test B flooded paddy test; type: in vivo, Oryza sativa; settings: Flood, 250 g ai/ha; 0 to 100 scale where 0 is no effect and 100 is complete control
In short: (§2)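 Visual ratings on a 0 to 100 scale, where 100 means complete control, compared treated plants with controls after 13 to 15 days in a greenhouse. Treatment went into paddy water 3 cm deep over the soil, applied to plants at the 2-leaf stage.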

Italian ryegrass [2] = experiment: Test A preemergence; type: in vivo, Lolium multiflorum; settings: for Plant response rating, Ryegrass, Italian: 125 g ai/ha, 0 to 100 scale where 0 is no effect and 100 is complete control; for Ryegrass, Italian plant response rating: 0 to 100 scale, 0 no effect, 100 complete control, approx. 10 days
In short: as §1

galium = experiment: Test A postemergence; type: in vivo, Galium aparine
In short: as §1

ragweed [3] = experiment: Test A postemergence; type: in vivo, Ambrosia elatior
From the text: (§3) Seeds of plant species selected from barnyardgrass (Echinochloa crus-galli), kochia (Kochia scoparia), ragweed (common ragweed, Ambrosia elatior), Italian ryegrass (Lolium multiflorum), large (Lg) crabgrass (Digitaria sanguinalis), giant foxtail (Setaria faberii), morningglory (Ipomoea spp.), pigweed (Amaranthus retroflexus), velvetleaf (Abutilon theophrasti), wheat (Triticum aestivum), and corn (Zea mays) were planted into a blend of loam soil and sand and treated preemergence with a directed soil spray using test chemicals formulated in a non-phytotoxic solvent mixture which included a surfactant.
(§4) At the same time, plants selected from these crop and weed species and also blackgrass (Alopecurus myosuroides), and galium (catchweed bedstraw, Galium aparine) were planted in pots containing the same blend of loam soil and sand and treated with postemergence applications of test chemicals formulated in the same manner. Plants ranged in height from 2 to 10 cm and were in the one- to two-leaf stage for the postemergence treatment. Treated plants and untreated controls were maintained in a greenhouse for approximately 10 days, after which time all treated plants were compared to untreated controls and visually evaluated for injury. Plant response ratings, summarized in Table A, are based on a 0 to 100 scale where 0 is no effect and 100 is complete control. A dash (-) response means no test result.

wheat = experiment: Test A postemergence; type: in vivo, Triticum aestivum
In short: as §1

barnyardgrass [4] = experiment: Test B flooded paddy test; type: in vivo, Echinochloa crus-galli; settings: Flood, 250 g ai/ha; 0 to 100 scale where 0 is no effect and 100 is complete control
In short: as §2

barnyardgrass [5] = experiment: Test A preemergence; type: in vivo, Echinochloa crus-galli; settings: for Plant response rating, Barnyardgrass: 125 g ai/ha, 0 to 100 scale where 0 is no effect and 100 is complete control; for Barnyardgrass plant response rating: 0 to 100 scale, 0 no effect, 100 complete control, approx. 10 days
In short: as §1

barnyardgrass [6] = experiment: Test A postemergence; type: in vivo, Echinochloa crus-galli
In short: as §1

ragweed [7] = experiment: Test A preemergence; type: in vivo, Ambrosia elatior; settings: for Plant response rating, Ragweed: 125 g ai/ha, 0 to 100 scale where 0 is no effect and 100 is complete control; for Ragweed plant response rating: 0 to 100 scale, 0 no effect, 100 complete control, approx. 10 days
From the text: as §3, §4

blackgrass = experiment: Test A postemergence; type: in vivo, Alopecurus myosuroides
From the text: as §3, §4

giant foxtail [8] = experiment: Test A preemergence; type: in vivo, Setaria faberii; settings: for Plant response rating, Foxtail, Giant: 125 g ai/ha, 0 to 100 scale where 0 is no effect and 100 is complete control; for Foxtail, Giant plant response rating: 0 to 100 scale, 0 no effect, 100 complete control, approx. 10 days
In short: as §1

sedge, umbrella = experiment: Test B flooded paddy test; type: in vivo, Cyperus difformis; settings: Flood, 250 g ai/ha; 0 to 100 scale where 0 is no effect and 100 is complete control
In short: as §2

pigweed [9] = experiment: Test A preemergence; type: in vivo, Amaranthus retroflexus; settings: for Plant response rating, Pigweed: 125 g ai/ha, 0 to 100 scale where 0 is no effect and 100 is complete control; for Pigweed plant response rating: 0 to 100 scale, 0 no effect, 100 complete control, approx. 10 days
In short: as §1

corn = experiment: Test A postemergence; type: in vivo, Zea mays
In short: as §1

kochia [10] = experiment: Test A preemergence; type: in vivo, Kochia scoparia; settings: for Plant response rating, Kochia: 125 g ai/ha, 0 to 100 scale where 0 is no effect and 100 is complete control; for Kochia plant response rating: 0 to 100 scale, 0 no effect, 100 complete control, approx. 10 days
In short: as §1

kochia [11] = experiment: Test A postemergence; type: in vivo, Kochia scoparia
From the text: as §3, §4

Italian ryegrass [12] = experiment: Test A postemergence; type: in vivo, Lolium multiflorum
In short: as §1

giant foxtail [13] = experiment: Test A postemergence; type: in vivo, Setaria faberii
In short: as §1

Heteranthera limosa = experiment: Test B flooded paddy test; type: in vivo; settings: Flood, 250 g ai/ha; 0 to 100 scale where 0 is no effect and 100 is complete control
In short: as §2

[14] = 31 g ai/ha, 0 to 100 scale, 0 no effect, 100 complete control
[15] = 125 g ai/ha, 0 to 100 scale where 0 is no effect and 100 is complete control
[16] = 500 g ai/ha, 0 to 100 scale where 0 is no effect and 100 is complete control
[17] = 1000 g ai/ha, 0 to 100 scale, 0 no effect, 100 complete control

Clc1cnc(Oc2ccccc2-n2ccnc2)nc1 [Compound 100]
10: Plant response rating, Galium (galium; [15])
0: Plant response rating, Pigweed (pigweed [1]; [14]) | Plant response rating, Rice (rice) | Ryegrass, Italian plant response rating (0 to 100 scale) (Italian ryegrass [2]; 31 g ai/ha) | Plant response rating, Ryegrass, Italian (Italian ryegrass [2]) | Plant response rating, Galium (galium; [14]) | Plant response rating, Ragweed (ragweed [3]; [14]) | Plant response rating, Wheat (wheat; [14]) | Barnyardgrass plant response rating (0 to 100 scale) (barnyardgrass [5]; 31 g ai/ha) | Plant response rating, Barnyardgrass (barnyardgrass [5]) | Plant response rating, Barnyardgrass (barnyardgrass [6]; [14]) | Plant response rating, Barnyardgrass (barnyardgrass [6]; [15]) | Ragweed plant response rating (0 to 100 scale) (ragweed [7]; 31 g ai/ha) | Plant response rating, Ragweed (ragweed [7]) | Plant response rating, Blackgrass (blackgrass; [14]) | Plant response rating, Blackgrass (blackgrass; [15]) | Foxtail, Giant plant response rating (0 to 100 scale) (giant foxtail [8]; 31 g ai/ha) | Plant response rating, Foxtail, Giant (giant foxtail [8]) | Plant response rating, Sedge, Umbrella (sedge, umbrella) | Pigweed plant response rating (0 to 100 scale) (pigweed [9]; 31 g ai/ha) | Plant response rating, Pigweed (pigweed [9]) | Plant response rating, Corn (corn; [14]) | Plant response rating, Corn (corn; [15]) | Kochia plant response rating (0 to 100 scale) (kochia [10]; 31 g ai/ha) | Plant response rating, Kochia (kochia [10]) | Plant response rating, Kochia (kochia [11]; [14]) | Plant response rating, Kochia (kochia [11]; [15]) | Plant response rating, Ryegrass, Italian (Italian ryegrass [12]; [14]) | Plant response rating, Foxtail, Giant (giant foxtail [13]; [14]) | Plant response rating, Foxtail, Giant (giant foxtail [13]; [15]) | Plant response rating, Ducksalad (Heteranthera limosa)
15: Plant response rating, Barnyardgrass (barnyardgrass [4])

N#Cc1cccc(Oc2ncc(I)cn2)c1-n1cc(I)cn1 [Compound 87]
0: Plant response rating, Rice (rice) | Plant response rating, Ryegrass, Italian (Italian ryegrass [2]) | Ryegrass, Italian plant response rating (Italian ryegrass [2]; 500 g ai/ha) | Plant response rating, Wheat (wheat; [15]) | Plant response rating, Wheat (wheat; [16]) | Plant response rating, Barnyardgrass (barnyardgrass [4]) | Plant response rating, Barnyardgrass (barnyardgrass [5]) | Plant response rating, Sedge, Umbrella (sedge, umbrella) | Plant response rating, Ducksalad (Heteranthera limosa)
70: Plant response rating, Ragweed (ragweed [3]; [16]) | Foxtail, Giant plant response rating (giant foxtail [8]; 500 g ai/ha)
60: Plant response rating, Pigweed (pigweed [1]; [15]) | Plant response rating, Galium (galium; [15]) | Plant response rating, Foxtail, Giant (giant foxtail [8]) | Kochia plant response rating (kochia [10]; 500 g ai/ha) | Plant response rating, Foxtail, Giant (giant foxtail [13]; [16])
50: Plant response rating, Ragweed (ragweed [3]; [15]) | Plant response rating, Blackgrass (blackgrass; [16]) | Plant response rating, Kochia (kochia [11]; [15])
10: Barnyardgrass plant response rating (barnyardgrass [5]; 500 g ai/ha) | Plant response rating, Ragweed (ragweed [7])
90: Plant response rating, Galium (galium; [16]) | Plant response rating, Pigweed (pigweed [9]) | Plant response rating, Kochia (kochia [11]; [16])
40: Plant response rating, Blackgrass (blackgrass; [15]) | Plant response rating, Ryegrass, Italian (Italian ryegrass [12]; [16])
30: Plant response rating, Kochia (kochia [10]) | Plant response rating, Ryegrass, Italian (Italian ryegrass [12]; [15])
100: Plant response rating, Pigweed (pigweed [1]; [16]) | Pigweed plant response rating (pigweed [9]; 500 g ai/ha)
20: Plant response rating, Barnyardgrass (barnyardgrass [6]; [15]) | Plant response rating, Barnyardgrass (barnyardgrass [6]; [16]) | Ragweed plant response rating (ragweed [7]; 500 g ai/ha) | Plant response rating, Corn (corn; [15]) | Plant response rating, Corn (corn; [16]) | Plant response rating, Foxtail, Giant (giant foxtail [13]; [15])

Cc1noc(-c2cccc(Oc3ncc(Cl)cn3)c2-n2cc(C(F)(F)F)cn2)n1 [Compound 299]
20: Plant response rating, Wheat (wheat; [17]) | Plant response rating, Barnyardgrass (barnyardgrass [4]) | Plant response rating, Ducksalad (Heteranthera limosa)
60: Ryegrass, Italian plant response rating (Italian ryegrass [2]; 1000 g ai/ha)
80: Plant response rating, Galium (galium; [17]) | Plant response rating, Barnyardgrass (barnyardgrass [6]; [17]) | Plant response rating, Blackgrass (blackgrass; [17])
90: Barnyardgrass plant response rating (barnyardgrass [5]; 1000 g ai/ha) | Plant response rating, Foxtail, Giant (giant foxtail [13]; [17])
70: Ragweed plant response rating (ragweed [7]; 1000 g ai/ha) | Plant response rating, Sedge, Umbrella (sedge, umbrella) | Plant response rating, Corn (corn; [17]) | Plant response rating, Kochia (kochia [11]; [17]) | Plant response rating, Ryegrass, Italian (Italian ryegrass [12]; [17])
30: Plant response rating, Ragweed (ragweed [3]; [17])
100: Plant response rating, Pigweed (pigweed [1]; [17]) | Foxtail, Giant plant response rating (giant foxtail [8]; 1000 g ai/ha) | Pigweed plant response rating (pigweed [9]; 1000 g ai/ha) | Kochia plant response rating (kochia [10]; 1000 g ai/ha)
15: Plant response rating, Rice (rice)
